A value given as a limit tells only on which side of the number the result lay.

For the assay, the target named is T1, hROMK1 (Kir1.1) (Homo sapiens, UniProt P48048).
T1 construct: expressed in transfected cells
T1 sequence (P48048 1-391): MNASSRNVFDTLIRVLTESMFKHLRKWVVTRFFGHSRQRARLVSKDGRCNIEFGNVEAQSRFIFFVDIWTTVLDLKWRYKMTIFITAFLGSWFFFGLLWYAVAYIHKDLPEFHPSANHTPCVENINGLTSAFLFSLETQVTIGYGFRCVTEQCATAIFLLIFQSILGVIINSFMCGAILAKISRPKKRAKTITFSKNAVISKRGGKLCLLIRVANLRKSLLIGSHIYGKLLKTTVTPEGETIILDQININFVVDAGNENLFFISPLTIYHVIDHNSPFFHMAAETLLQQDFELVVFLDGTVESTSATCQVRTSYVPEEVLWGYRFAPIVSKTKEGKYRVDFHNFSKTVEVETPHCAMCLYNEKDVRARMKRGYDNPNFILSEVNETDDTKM
Nature of the assay: ^86Rb^+ Efflux Assay. In kind it is cell-based. Conditions: CHO-DHFR- cells stably expressing hROMK1; potency ranges. How it is done: Several assays may be used to measure functional inhibition of the ROMK channel by compounds of the instant invention. One primary assay that can be used is a functional ^86Rb^+ efflux assay that measures the ability of ROMK to permeate ^86Rb^+, in the absence or presence of test compound. Under control conditions, cells loaded with ^86Rb^+ and incubated in Rb^+-free medium display a time-dependent efflux of the isotope, the rate of which depends on number of functional channels. When cells are incubated in the presence of a channel inhibitor, efflux of ^86Rb^+ is prevented in a concentration-dependent manner, and IC50 values of inhibition by compounds can be accurately determined. This assay has been established with cell lines expressing either human, rat or dog ROMK channels, and can operate in 96- or 384-well format. Importantly, the human, rat, and dog ^86Rb^+ efflux assays can be carried out in the presence of up to 100% serum allowing, therefore, an accurate estimation of the effect of protein binding on the inhibitory activity of compounds of interest. Another ROMK functional assay makes use of the ability of thallium to permeate through open ROMK channels and increase the fluorescence of a dye previously loaded into the cells. Under control conditions, cells loaded with dye and exposed to thallium-containing medium display a time-dependent increase in fluorescence, the rate of which depends on number of functional channels. When cells are incubated in the presence of a channel inhibitor, the increase in fluorescence is attenuated in a concentration-dependent manner, and IC50 values of inhibition by compounds can be accurately determined. This assay has been established with cell lines expressing either human, or rat ROMK channels, and operates in 384-well format. Another assay for evaluation of the compounds of the instant invention and for evaluation of mechanism of action of compounds of Formula I relies on the measurement of the electrical current that is generated as potassium permeates through the channel. For these electrophysiological experiments, three different platforms, IonWorks, QPatch, or manual patch clamp, are used, depending on the experimental protocol under consideration. IonWorks operates in a 384-well format and allows accurate determination of IC50 values for inhibitors.
CHO-DHFR-cells stably expressing hROMK1 (Kir1.1) were grown at 37° C. in a 10% CO2 humidified incubator in Iscove's Modified Dulbecco's Medium (Gibco 12440) supplemented with HT Supplement, Penicillin/Streptomycin/Glutamine, G418 (500 μg/ml) and 10% FBS. Cells were seeded in Sterile and Tissue Culture Treated Packard CulturPlate White Opaque Microplates at a concentration of 5.0E5-7.0E5 cells/ml—PerkinElmer 6005680 (96-well); Corning 3707 (384 well) in complete media containing 1.5 μCi/ml Rubidium-86. Cells were incubated in 37° C.-10% CO2 incubator overnight. On the day of the experiment, the media was removed and cells washed with low K assay buffer. ^86Rb^+ efflux was initiated after addition of assay buffer±test compound followed by 35 min incubation at room temperature. ROMK-sensitive component of efflux was defined in the presence of 10 mM BaCl2. Assay buffer was removed and transferred to a plate and cells were solubilized in the presence of SDS. Radioactivity associated with assay and cell plate was determined.
• 1. Removed cell media and washed cells with low K assay buffer (126.9 mM NaCl, 4.6 mM KCl, 2 mM CaCl2, 1 mM MgCl2, 10 mM Hepes/NaOH; pH 7.4) • 200 μl for 96-well plate; 70 μl for 384-well plate • 2. Added assay buffer (121.5 mM NaCl, 10 mM KCl, 2 mM CaCl2, 1 mM MgCl2, 10 mM Hepes/NaOH; pH 7.4)±test compound to cells • 100 μl for 96-well plate; 50 μl for 384-well plate • 3. Incubated at ambient temperature (22-24° C.) for 35 min • 4.
As usually defined, the IC50 is the concentration that inhibits the measured activity by half. High values mean a need for much substance, low ones inhibition by little substance. As to `O=C1OCc2cc(OCC3CCN(C(=O)Cc4ccc(-n5cnnn5)cc4)CC3)ccc21` [Example 55, 5-[(1-{[4-(1H-Tetrazol-1-yl)phenyl]acetyl}piperidin-4-yl)methoxy]-2-benzofuran-1(3H)-one], the IC50 is not above 200 nM.

`O=[N+]([O-])c1ccc(/C=C/C2CCN(CCc3ccc([N+](=O)[O-])cc3)CC2)cc1` [Example 2, 4-[(E)-2-(4-Nitrophenyl)ethenyl]-1-[2-(4-nitrophenyl)ethyl]piperidine] had an IC50 not above 200 nM.

As for `O=C(Cc1ccc(-n2cnnn2)cc1)N1CCC(CCc2ccc([N+](=O)[O-])cc2)CC1` [Example 4, 2-(4-(1H-Tetrazol-1-yl)phenyl)-1-(4-(4-nitrophenethyl)piperidin-1-yl)ethanone], the IC50 was not above 200 nM.

In the case of `CC1Cc2cc(/C=C/C3CCN(C(=O)Cc4ccc(-n5cnnn5)cc4)CC3)ccc2C(=O)O1` (centres unmarked) [Example 79, 3-Methyl-6-[(E)-2-(1-{[4-(1H-tetrazol-1-yl)phenyl]acetyl}piperidin-4-yl)ethenyl]-3,4-dihydro-1H-isochromen-1-one], the IC50 was not above 200 nM.

Compound `O=C(Cc1ccc(-n2cnnn2)cc1)N1CCC(O)(CCc2ccc3nonc3c2)CC1` [Example 8, 1-{4-[2-(2,1,3-Benzoxadiazol-5-yl)ethyl]-4-hydroxypiperidin-1-yl}-2-[4-(1H-tetrazol-1-yl)phenyl]ethanone] came in with an IC50 not above 500 nM.

In the case of `Cc1c(C#CC2(O)CCN(C(=O)Cc3ccc(-n4cnnn4)cc3)CC2)ccc(F)c1C#N` [Example 36, 6-Fluoro-3-[(4-hydroxy-1-{[4-(1H-tetrazol-1-yl)phenyl]acetyl}piperidin-4-yl)ethynyl]-2-methylbenzonitrile], the IC50 was not above 500 nM.

The compound `Cc1c(/C=C/C2CCN(C(=O)Cc3ccc(-n4cnnn4)cc3)CC2)ccc2c1COC2=O` [Example 41, 4-Methyl-5-[(E)-2-(1-{[4-(1H-tetrazol-1-yl)phenyl]acetyl}piperidin-4-yl)ethenyl]-2-benzofuran-1(3H)-one] had an IC50 not above 200 nM.

Consider `CN(C)C1(CCc2ccc(F)c(C#N)c2)CCN(C(=O)Cc2ccc(-n3cnnn3)cc2)CC1` [Example 82, 5-{2-[4-(Dimethylamino)-1-{[4-(1H-tetrazol-1-yl)phenyl]acetyl}piperidin-4-yl]ethyl}-2-fluorobenzonitrile], for which the IC50 is not above 500 nM.

On to `Cc1cc(-n2cnnn2)ccc1CC(=O)N1CCC(O)(CCc2ccc(F)c(C#N)c2)CC1` [Example 18, 2-Fluoro-5-[2-(4-hydroxy-1-{[2-methyl-4-(1H-tetrazol-1-yl)phenyl]acetyl}piperidin-4-yl)ethyl]benzonitrile], for which the half-maximal inhibitory concentration (IC50) was not above 500 nM.

The compound `O=C(Cc1ccc(-n2cnnn2)cc1)N1CCC(/C=C/c2ccc3nonc3c2)CC1` [Example 5] had an IC50 not above 200 nM.

The compound `N#Cc1c(F)ccc(C#CC2(O)CCN(C(=O)Cc3ccc(-n4cnnn4)cc3)CC2)c1F` [Example 33, 2,6-Difluoro-3-[(4-hydroxy-1-{[4-(1H-tetrazol-1-yl)phenyl]acetyl}piperidin-4-yl)ethynyl]benzonitrile] yielded an IC50 not above 500 nM.

The compound `O=C1OCc2cc(CCC3CCN(C(=O)Cc4ccc(-n5cnnn5)cc4)CC3)ccc21` [Example 7, 5-[2-(1-{[4-(1H-Tetrazol-1-yl)phenyl]acetyl}piperidin-4-yl)ethyl]-2-benzofuran-1(3H)-one] came in with an IC50 not above 500 nM.

Consider `N#Cc1cc(C#CC2(O)CCN(C(=O)Cc3ccc(-n4cnnn4)cc3)CC2)ccc1F` [Example 10, 2-Fluoro-5-[(4-hydroxy-1-{[4-(1H-tetrazol-1-yl)phenyl]acetyl}piperidin-4-yl)ethynyl]benzonitrile], for which the IC50 is not above 500 nM.

Take `O=C1OCCc2cc(CCC3CCN(C(=O)Cc4ccc(-n5cnnn5)cc4)CC3)ccc21` [Example 65, 6-[2-(1-{[4-(1H-tetrazol-1-yl)phenyl]acetyl}piperidin-4-yl)ethyl]-3,4-dihydro-1H-isochromen-1-one]: the IC50 was not above 200 nM.

`O=[N+]([O-])c1ccc(CCC2CCN(CCc3ccc([N+](=O)[O-])cc3)CC2)cc1` [Example 3, 1,4-bis[2-(4-Nitrophenyl)ethyl]piperidine] yielded a half-inhibitory concentration (IC50) not above 200 nM.

Consider `N#Cc1cc(/C=C/C2(O)CCN(C(=O)Cc3ccc(-n4cnnn4)cc3)CC2)ccc1F` [Example 29, 2-Fluoro-5-[(E)-2-(4-hydroxy-1-{[4-(1H-tetrazol-1-yl)phenyl]acetyl}piperidin-4-yl)ethenyl]benzonitrile], for which the 50% inhibitory concentration (IC50) was not above 500 nM.

`O=C(Cc1ccc(-n2cnnn2)cc1)N1CCC(Sc2ccc([N+](=O)[O-])cc2)CC1` [Example 12, 1-{4-[(4-Nitrophenyl)sulfanyl]piperidin-1-yl}-2-[4-(1H-tetrazol-1-yl)phenyl]ethanone] returned a half-inhibitory concentration (IC50) not above 200 nM.

For `COc1cc(CC(=O)N2CCC(CCc3ccc4c(c3)COC4=O)CC2)c(F)cc1C#N` [Example 56, 5-Fluoro-2-methoxy-4-(2-oxo-2-{4-[2-(1-oxo-1,3-dihydro-2-benzofuran-5-yl)ethyl]piperidin-1-yl}ethyl)benzonitrile], the half-inhibitory concentration (IC50) was not above 500 nM.

`N#Cc1cc(CCC2(CO)CCN(C(=O)Cc3ccc(-n4cnnn4)cc3)CC2)ccc1F` [Example 26, 2-Fluoro-5-{2-[4-(hydroxymethyl)-1-{[4-(1H-tetrazol-1-yl)phenyl]acetyl}piperidin-4-yl]ethyl}benzonitrile] yielded an IC50 not above 500 nM.

As for `N#Cc1c(F)ccc(CCC2(O)CCN(C(=O)Cc3ccc(-n4cnnn4)cc3)CC2)c1F` [Example 34, 2,6-Difluoro-3-[2-(4-hydroxy-1-{[4-(1H-tetrazol-1-yl)phenyl]acetyl}piperidin-4-yl)ethyl]benzonitrile], the IC50 was not above 500 nM.

As to `N#Cc1ccc(CC(=O)N2CCC(CCc3ccc4c(c3)COC4=O)CC2)cc1Br` [Example 64, 2-Bromo-4-[2-oxo-2-[4-[2-(1-oxo-3H-isobenzofuran-5-yl)ethyl]-1-piperidyl]ethyl]benzonitrile], the IC50 is not above 500 nM.

With `Cc1cc(/C=C/C2CCN(CCc3ccc4c(c3)COC4=O)CC2)ccc1C#N` [Example 83], the IC50 is not above 200 nM.

`O=C1OCc2c1ccc(/C=C/C1CCN(C(=O)Cc3ccc(-n4cnnn4)cc3)CC1)c2Br` [Example 68, 4-Bromo-5-[(E)-2-(1-{[4-(1H-tetrazol-1-yl)phenyl]acetyl}piperidin-4-yl)ethenyl]-2-benzofuran-1(3H)-one] returned an IC50 not above 500 nM.

For the compound `N#Cc1ccc(/C=C/C2CCN(CCc3ccc4c(c3)COC4=O)CC2)cc1` [Example 84, 4-[(E)-2-{1-[2-(1-Oxo-1,3-dihydro-2-benzofuran-5-yl)ethyl]piperidin-4-yl}ethenyl]benzonitrile], the IC50 is not above 500 nM.

Regarding `O=C1OCCc2cc(CCC3CCN(C(=O)C4CCc5cc(-n6cnnn6)ccc54)CC3)ccc21` (centres unmarked) [Example 66], the IC50 is not above 200 nM.

Regarding `N#Cc1cc(CCC2(O)CCN(C(=O)Cc3ccc(-n4cnnn4)cc3)CC2)ccc1F` [Example 13, 2-Fluoro-5-[2-(4-hydroxy-1-{[4-(1H-tetrazol-1-yl)phenyl]acetyl}piperidin-4-yl)ethyl]benzonitrile], the IC50 is not above 500 nM.

The values are drawn from patent US9527830B2 (Merck Sharp & Dohme Corp., priority 2011, dated 2016).
